Measured values taken from US20240382529A1, “COMPOSITIONS AND METHODS FOR TREATING SPINAL CORD INJURIES” (ASTERIAS BIOTHERAPEUTICS, INC., priority 2022, published 2024).

B1: Decorin: extracellular small leucine-rich proteoglycan, TGF-β1/2 antagonist; recombinant form used in rat SCI models (protein, UniProt P07585 31-359, looked up)
Decorin: DEASGIGPEVPDDRDFEPSLGPVCPFRCQCHLRVVQCSDLGLDKVPKDLPPDTTLLDLQNNKITEIKDGDFKNLKNLHALILVNNKISKVSPGAFTPLVKLERLYLSKNQLKELPEKMPKTLQELRAHENEITKVRKVTFNGLNQMIVIELGTNPLKSSGIENGAFQGMKKLSYIRIADTNITSIPQGLPPSLTELHLDGNKISRVDAASLKGLNNLAKLGLSFNSISAVDNGSLANTPHLRELHLDNNKLTRVPGGLAEHKYIQVVYLHNNNISVVGSSDFCPPGHNTKKASYSGVSLFSNPVQYWEIQPSTFRCVYVRSAIQLGNYK

Legend:
[1] = tested on: T3 to T11 neurologically complete spinal cord injuries (SCI); assay: Phase 1 thoracic SCI trial of LCTOPC1 (NCT01217008): safety, adverse events; format: in vivo, human; settings: 60 days immunosuppression
Description: Study design. The trial design was an open-label, multicenter study. A single dose of 2×10^6 LCTOPC1 was injected within 7 to 14 days following SCI. Subjects who received LCTOPC1 also received tacrolimus to prevent rejection. Subjects will be followed by protocol for 15 years following administration of LCTOPC1. This study was a Phase 1, multi-center, non-randomized, a single group assignment interventional clinical trial. The Participants were enrolled from one of seven centers in the United Sates. The study was registered (NCT01217008) and the primary endpoint was safety, as measured by the frequency and severity of adverse events related to LCTOPC1, the injection procedure used to administer LCTOPC1, and/or the concomitant immunosuppression administered. The secondary endpoint was neurological function as measured by sensory scores and lower extremity motor scores on […] examinations. […] The primary endpoint was safety measured by the frequency and severity of adverse events related to the OPC1 injection, the injection procedure, and/or the concomitant immunosuppression administered. The secondary endpoint was neurological function as measured by sensory scores and lower extremity motor scores as measured by the […] examinations. […] The severity of AEs and the characterization of Serious Adverse Events (SAEs) were evaluated using standard FDA criteria. […]

[2] = tested on: subacute cervical spinal cord injuries (SCI); assay: Phase 1/2a cervical SCI trial: safety, adverse events; format: in vivo, human
Description: Study Design. The trial design was an open-label, staggered dose escalation, cross-sequential, multicenter study. Three sequential, escalating doses of AST-OPC1 were administered at a single time point between 21 and 42 days post-injury to subjects with subacute cervical spinal cord injuries (SCI). Subjects received AST-OPC1 via direct intra-spinal injection using a Syringe Positioning Device (SPD). To prevent rejection of engraftment, low dose tacrolimus was initiated 6 to 12 hours after and intra-spinal injection, and continued for 46 days, tapered from Day 46 to Day 60, and was discontinued at Day 60. Subjects were followed for 1 year following administration of AST-OPC1 under this protocol. Male or female subjects from 18 to 69 years of age at time of consent with sensorimotor complete, traumatic SCI (American Spinal Injury Association Impairment Scale A) or sensorimotor incomplete, traumatic SCI (American Spinal Injury Association Impairment Scale B). […] There was a single spinal cord lesion on a post-stabilization magnetic resonance imaging (MRI) scan, with sufficient visualization of the spinal cord injury epicenter and lesion margins to enable post-injection safety monitoring. Subjects were able to participate in an elective surgical procedure to inject AST-OPC1 21 to 42 days following SCI. Subjects received a single dose of either 2×10^6, 1×10^7, or 2×10^7 AST-OPC1 viable cells by injection, administered 21 to 42 days following SCI. The product was delivered intraoperatively into the spinal cord using the Syringe Positioning Device. The AST-OPC1 batch numbers used in this study were M08D1A, M22D1A and M25D1A. Single administration of AST-OPC1 was provided with 1 year of follow-up. Schematics of the planned study timeline, and subject screening and treatment, are provided in FIG. 6 and FIG. 7, respectively. A schematic diagram of the final open-label, staggered dose-escalation, multicenter Phase 1/2a clinical trial is shown in FIG. 8. An overview of study visits for the one-year protocol is presented in the study schema in FIG. 9.
A neurological examination was completed using the standardized International Standards for Neurological Classification of Spinal Cord Injury (ISNCSCI) examination for motor and sensory testing and for designation of the American Spinal Injury Association impairment scale. The ISNCSCI is used for efficacy with respect to improved motor function in the extremities, improved sensory function, and/or a descending neurological level. Safety assessments included physical examination, vital signs, ISNCSCI neurological examination, pain questionnaire (International Spinal Cord Injury Pain Basic Data Set, ISCIPBDS), electrocardiogram (ECG), Magnetic Resonance Imaging (MRI), laboratory tests, concomitant medications, and adverse events (AEs). Results for the ISNCSCI were listed for each subject by scheduled visit and analyzed by change in motor level and motor scores as well as other exploratory assessments of arm/hand function, self-care ability and overall volitional performance. Adverse events were tabulated by system organ class and by preferred term within system organ class according to the Medical Dictionary for Regulatory Activities (MedDRAR) Version 18.0. S[…] of the safety data was performed using descriptive statistical methods including AEs incidence, severity and relatedness to AST-OPC1, to the injection procedure for product administration, and concomitant immunosuppression with tacrolimus. The number of laboratory assessments (hematology, clinical chemistry) that were below, within, or above the normal laboratory reference range were summarized for each analyte at scheduled study visits. Vital signs were summarized by calculating the mean, standard deviation, median, and range of values at each of the protocol-specified time points.
Study Endpoints. […]

[3] = tested on: dorsal funicular lesion (DFL) SCI model; settings: cited from earlier work

Row | Molecule | Grade 1 AEs possibly related specifically to tacrolimus [1] | Grade 2 AEs possibly related specifically to tacrolimus [1] | AEs related to Tacrolimus that were hypomagnesemia ([2]; both, human, in vivo, 60 days) | Decreased Appetite: Severity ([2]; both, human, in vivo, 60 days) | Hypomagnesemia: Days from Injection ([2]; both, human, in vivo, 60 days) [days] | Hypomagnesemia: Severity ([2]; both, human, in vivo, 60 days) | Nausea: Days from Injection ([2]; both, human, in vivo, 60 days) [days] | Nausea: Severity ([2]; both, human, in vivo, 60 days) | Bacterial infection: Days from Injection ([2]; causality Tacrolimus) [days] | Bacterial infection: Outcome ([2]; causality Tacrolimus) | Bacterial infection: Severity ([2]; causality Tacrolimus) | Decreased Appetite: Outcome ([2]; in vivo) | Hypomagnesemia: Outcome ([2]; in vivo) | Nausea: Outcome ([2]; in vivo) | tolerability of immunosuppression ([2]; in vivo) | effect on scarring and wound cavitation ([3]; DFL SCI model, adult rats) | axonal regrowth ([3]; Decorin-treated vs PBS-treated DFL) | inflammation, glial scar formation, CSPG expression ([3]; after acute spinal cord injury)
1 | C=CC[C@@H]1/C=C(\C)C[C@H](C)C[C@H](OC)[C@H]2O[C@@](O)(C(=O)C(=O)N3CCCC[C@H]3C(=O)O[C@H](/C(C)=C/[C@@H]3CC[C@@H](O)[C@H](OC)C3)[C@H](C)[C@@H](O)CC1=O)[C@H](C)C[C@@H]2OC [Tacrolimus, tacrolimus] | Seven Grade 1 AEs | nine Grade 2 AEs | 8/11 | Grade 2 | 5 to 43 | 1-2 Grade | 7 | Grade 2 | 30 | Resolved | Grade 3 | Resolved | Resolved | Resolved | well-tolerated |  |  | 
2 | B1 |  |  |  |  |  |  |  |  |  |  |  |  |  |  |  | suppressed acute scarring (fibrogenesis) and wound cavitation | promoted axonal regrowth in both acute and chronic experiments | inhibit inflammation, glial scar formation and CSPG expression
